Measurements as given in patent EP4111863A1, “PHOSPHORUS USE EFFICIENCY ENHANCERS AS PLANT GROWTH PROMOTORS” (EuroChem Antwerpen, priority 2021, dated 2023).

Tests used:
[1] = test system: SPX1; test: Chemical activity assessment: SPX1 phosphate starvation biomarker, pSPX1::GUS reporter line, GUS stained area; format: in vivo, Arabidopsis thaliana; settings: for GUS (SPX1) stained area normalized to the number of seeds (pixels): 50 µM compound, low phosphate modMS liquid medium, 7 days after germination, low phosphate control average of the same plate
Procedure: (§1) All Arabidopsis plant experiments were performed using the Arabidopsis thaliana Columbia-0 background. The Arabidopsis pSPX1::GUS line is described in the […] 2008, 54: 965-975. For rice, the cultivar Nipponbare was used. For maize, the cultivars DKC 2931 and B104 were used for regular pot experiments and sand-based pot experiments, respectively. For soybean, the cultivar Primus was used. […] The medium was solidified due to the addition of 0,6% Gelrite, unless stated otherwise. In case of vertical plates (root length and root hair measurements), the medium was supplied with 0.5% of sucrose and 1 µM (low phosphate, 1 µM KH2PO4, 9.9 mM KCI), 10 µM (low phosphate 10 µM KH2PO4, 9.9 mM KCI) or 1.25 mM KH2PO4 (high phosphate). Arabidopsis seeds were stratified for 2 days at 4 °C before germination. Seedlings were germinated in climate-controlled growth chambers at 22 °C under continuous light (100 µmol m^-2 s^-1). Husked rice seeds were germinated on wetted Whatman paper for 2 days at 37 °C and then transferred to Sterivent boxes or square Petri dishes with solid medium. Maize and soybean seeds were wetted 24 hours at room temperature prior to sowing in pots.
For the chemical activity assessment 3 to 8 seeds per well of Arabidopsis pSPX1::GUS line were sown in 96-well plates containing 150 µl of low phosphate modMS liquid medium containing 1% of sucrose. Compounds were added in 50 µM concentration, starting from a 5 mM stock of compounds solved in DMSO. Different chemical substances were separately added to different wells. Per plate, 16 control wells were used, 8 containing only the low phosphate medium and 1% DMSO, and 8 containing high phosphate medium and 1% DMSO. 7 days after germination, plates were scanned using a flatbed scanner (EPSON Expression 11000XL) and analyzed for leaf size. After scanning, the growth medium was replaced by GUS staining solution (see Plant Mol. Biol. Rep. 1994, 12: 37-42 for details) and incubated for 1.5 hours at 37 °C. The plates were scanned a second time and analyzed for GUS signal area. Measurements of both leaf area and GUS signal area were conducted by filtering out and measure the green and blue signal, respectively using ImageJ software. If the green leaf area was 50% or less than the control, samples were omitted. Additionally, all results were visually screened for leaf size and GUS signal.

[2] = test system: Arabidopsis; test: Arabidopsis vertical plate growth assay (primary root length, shoot biomass); format: in vivo, Arabidopsis thaliana; settings: low phosphate; for Primary root length (in % versus control): Table 2, versus control without compound
Procedure: as §1
Arabidopsis primary root growth experiments were done on MS1/2 on vertical standing plates and roots were measured 11 days after germination. Roots were imaged using a flatbed scanner (EPSON Expression 11000XL) and root length was measured using ImageJ software. Arabidopsis shoot biomass was determined in 11 days after germination and growth on vertical standing plates with modMS. Arabidopsis leaf area was measured 21 days after germination on horizontal plates with modMS medium. Plates were scanned from the top using a flatbed scanner (EPSON Expression 11000XL) and the visible leaf area was measured using ImageJ software. Rice plate experiments used vertically standing Petri dishes containing MS1/2 medium (low phosphate - 0.001 mM) solidified with 0.8% washed agar. Plant height was measured 11 days after germination. Rice box experiments used modMS medium and a low phosphate condition of 0.025 mM phosphate. Plant height was measured 13 days after germination. All growth experiments occurred with 10 µM of compound and in low phosphate conditions, unless stated otherwise. Controls always received the same DMSO concentration.

[3] = test system: Rice; test: Rice plate experiment; format: in vivo; settings: low phosphate 0.001 mM, 10 µM, 11 days after germination
Procedure: (§2) All Arabidopsis plant experiments were performed using the Arabidopsis thaliana Columbia-0 background. The Arabidopsis pSPX1::GUS line is described in the […] 2008, 54: 965-975. For rice, the cultivar Nipponbare was used. For maize, the cultivars DKC 2931 and B104 were used for regular pot experiments and sand-based pot experiments, respectively. For soybean, the cultivar Primus was used. […] The medium was solidified due to the addition of 0,6% Gelrite, unless stated otherwise. […]
(§3) Arabidopsis primary root growth experiments were done on MS1/2 on vertical standing plates and roots were measured 11 days after germination. Roots were imaged using a flatbed scanner (EPSON Expression 11000XL) and root length was measured using ImageJ software. Arabidopsis shoot biomass was determined in 11 days after germination and growth on vertical standing plates with modMS. Arabidopsis leaf area was measured 21 days after germination on horizontal plates with modMS medium. Plates were scanned from the top using a flatbed scanner (EPSON Expression 11000XL) and the visible leaf area was measured using ImageJ software. […] Plant height was measured 11 days after germination. […] Plant height was measured 13 days after germination. […]

[4] = test system: Arabidopsis; test: Arabidopsis pot experiment; format: in vivo, Arabidopsis thaliana; settings: low phosphate, 10 µM, 4 weeks of growth
Procedure: as §2
(§4) Regular Arabidopsis and maize pot experiments used an unfertilized potting soil, which was supplemented at the start of the experiment with 50 ml H2O containing 0.25 g/l NH4NO3 and 0.44 g/l (high phosphate) or no (maize and soybean) or 0.11 g/l KH2PO (Arabidopsis) for low phosphate conditions. […] Compound concentration was 10 µM, calculated based on the total water content after watering, and was added at the start of the experiment (Arabidopsis) or once a week (maize). […] All parameters in the sand experiment, except the rate of leaf 4 (measured the first 4 days after emergence), were measured 19 days after sowing. Measurements in the pot experiments with potting soil were done after 4 weeks of growth, except for leaf 5, which was measured at 26 days. s. […]

[5] = test system: Arabidopsis; test: Arabidopsis horizontal plate growth assay (leaf area); format: in vivo, Arabidopsis thaliana; settings: 10 µM, 21 days after germination
Procedure: as §2, §3

[6] = test system: Maize; test: Sand-based maize pot experiment; format: in vivo; settings: low phosphate, 10 µM
Procedure: as §1
as §4, with “conditions. For the sand-based maize pot experiment, sand was supplemented with 50 ml H2O containing 0.25 g/l NH4NO3 and 0.38 g/l (high phosphate) or 0.02 g/l (low phosphate) KH2PO4.” for “conditions.”

[7] = test system: Rice; test: Rice box experiment; format: in vivo; settings: low phosphate 0.025 mM, 10 µM, 13 days after germination
Procedure: as §2, §3

[8] = test system: Maize; test: Long term maize pot experiment, cultivar DKC2931 (Phenovision platform); format: in vivo; settings: DKC2931, 70 days
Procedure: (§5) Regular Arabidopsis and maize pot experiments used an unfertilized potting soil, which was supplemented at the start of the experiment with 50 ml H2O containing 0.25 g/l NH4NO3 and 0.44 g/l (high phosphate) or no (maize and soybean) or 0.11 g/l KH2PO (Arabidopsis) for low phosphate conditions. For the sand-based maize pot experiment, sand was supplemented with 50 ml H2O containing 0.25 g/l NH4NO3 and 0.38 g/l (high phosphate) or 0.02 g/l (low phosphate) KH2PO4. Potassium was balanced via addition of KCI. Compound concentration was 10 µM, calculated based on the total water content after watering, and was added at the start of the experiment (Arabidopsis) or once a week (maize). Indexed chlorophyll contents were received via a SPAD 502 Plus Chlorophyll Meter. All parameters in the sand experiment, except the rate of leaf 4 (measured the first 4 days after emergence), were measured 19 days after sowing. Measurements in the pot experiments with potting soil were done after 4 weeks of growth, except for leaf 5, which was measured at 26 days. s. The long term maize pot experiment was performed on the automated Phenovision platform (see Mertens et al, 2021, 20 https.l/doi.org/10.3389/fpls.2021.640914) with maize cultivars B104 and DKC2931. End point measurements occurred after 90 days (B104) or 70 days (DKC2931). Plants were grown on an unfertilized potting soil, which was fertilized bi-weekly with 50 mL modified Hoagland solution (2.5 x concentrated; but with 0.25 mM KH2PO4.).

[9] = test system: Maize; test: Regular maize pot experiment (potting soil); format: in vivo; settings: low phosphate, 10 µM once a week
Procedure: as §1
as §4, with “conditions. For the sand-based maize pot experiment, sand was supplemented with 50 ml H2O containing 0.25 g/l NH4NO3 and 0.38 g/l (high phosphate) or 0.02 g/l (low phosphate) KH2PO4.” for “conditions.”

[10] = test system: Arabidopsis, rice, soybean and maize; test: Growth experiments in different growing systems and plant species (summary statement); format: in vivo; settings: result in words; plate, box or pot experiments
Procedure: as §2, §3

[11] = test system: Maize; test: Long term maize pot experiment, cultivar B104 (Phenovision platform); format: in vivo
Procedure: as §5

[12] = Arabidopsis vertical plate, 10 µM, 11 days after germination
[13] = Maize pot long term, B104, 90 days

COCCn1c(SCC(=O)N2CCOCC2)nnc1-c1ccncc1
GUS (SPX1) stained area normalized to the number of seeds (pixels) ([1]; Table 3): 9 pixels

O=C1C(=O)N(C2CCCC2)C(=O)N1Cc1cccc(S(=O)(=O)N2CCOCC2)c1
GUS (SPX1) stained area normalized to the number of seeds (pixels) ([1]; Table 3): 9 pixels

Cc1c(C(=O)NCC2CN(CC(C)C)CCO2)cnn1C (stereo not shown)
GUS (SPX1) stained area normalized to the number of seeds (pixels) ([1]; Table 3): 9 pixels

Brc1ccc(CN2CCOC(Cn3cccn3)C2)s1 (stereo not shown)
GUS (SPX1) stained area normalized to the number of seeds (pixels) ([1]; Table 3): 10 pixels

O=C(COc1cccc(F)c1)Nc1sc2c(c1C(=O)N1CCOCC1)CCCC2
GUS (SPX1) stained area normalized to the number of seeds (pixels) ([1]; Table 3): 10 pixels

Cc1ccc(S(=O)(=O)N2CCN(S(=O)(=O)N3CCOCC3)CC2)cc1
GUS (SPX1) stained area normalized to the number of seeds (pixels) ([1]; Table 3): 10 pixels

CC1CN(C(=O)c2nn(-c3ccccc3)c(=O)c3ccccc23)CC(C)O1 (stereo not shown)
GUS (SPX1) stained area normalized to the number of seeds (pixels) ([1]; Table 3): 10 pixels

O=C(Nc1cccc(NC(=O)N2CCOC3(CCC3)C2)c1)C1CC1
GUS (SPX1) stained area normalized to the number of seeds (pixels) ([1]; Table 3): 11 pixels

CCC(CC)C(C(=O)NCc1cccc(C)c1)N1CCOCC1 (stereo not shown)
GUS (SPX1) stained area normalized to the number of seeds (pixels) ([1]; Table 3): 11 pixels

CN1CCOC2CN(Cc3cc(O)ccc3Br)CC21 (stereo not shown)
GUS (SPX1) stained area normalized to the number of seeds (pixels) ([1]; Table 3): 12 pixels

Cc1csc(C2COCCN2C(=O)NC2CCc3ccccc32)n1 (stereo not shown)
GUS (SPX1) stained area normalized to the number of seeds (pixels) ([1]; Table 3): 12 pixels

COCC1CN(C(=O)NCCc2c[nH]c3ccc(F)cc23)CCO1 (stereo not shown)
GUS (SPX1) stained area normalized to the number of seeds (pixels) ([1]; Table 3): 13 pixels

COC(=O)C1CN(Cc2sccc2Br)C[C@@H](C)O1 (stereo partly shown)
GUS (SPX1) stained area normalized to the number of seeds (pixels) ([1]; Table 3): 13 pixels

CCc1nnsc1C(=O)NCc1ccccc1N1CCOCC1
GUS (SPX1) stained area normalized to the number of seeds (pixels) ([1]; Table 3): 13 pixels

O=C1NC(c2cc3ccccc3nc2N2CCOCC2)Nc2ccccc21 (stereo not shown)
GUS (SPX1) stained area normalized to the number of seeds (pixels) ([1]; Table 3): 14 pixels

Cc1nc(N2CCOCC2)sc1C(=O)NN [Compound 4.1]
Primary root length (in % versus control) [2]: 118%

CNC(=O)c1sc(N2CCOC(C)C2)nc1C (stereo not shown) [Compound 4.3]
Primary root length (in % versus control) [2]: 122%

CC(C)c1ncsc1C(=O)NCC1CN(C)CCO1 (stereo not shown) [Compound 4.4]
GUS (SPX1) stained area normalized to the number of seeds (pixels) ([1]; Table 2): 106 pixels

Cc1nc(N2CCOCC2)sc1CNCC1CN(C)CCO1 (stereo not shown) [Compound 4]
Primary root length (cm) [2, 12]: 3.8 cm
Shoot biomass [2, 12]: 26 mg
Primary root length (in % versus control) [2]: 211%
primary root length relative to the control without compound ([2]; result in words, 10 µM, 11-day-old Arabidopsis plants): almost double
Plant height (cm) [3]: 15.8 cm
Rosette size (cm^2) [4]: 19 cm^2
Leaf area (mm^2) ([5]; low phosphate): 91 mm^2
Leaf area (mm^2) in suboptimal phosphate conditions ([5]; suboptimal phosphate): 151 mm^2
Crown root number ([6]; 19 days after sowing): 7
Plant height (cm) ([6]; 19 days after sowing): 26 cm
Growth rate of leaf 4 ([6]; first 4 days after emergence): 2.3 cm/day
Plant height (cm) [7]: 5.1 cm
Biomass [8]: 31 g
Plants with developed ears (%) [8]: 100%
Sum of leaf length (cm) [8]: 3894 cm
Plant height (cm) ([9]; 4 weeks of growth): 62 cm
Shoot weight ([9]; 4 weeks of growth): 4.4 g
Leaf 5 (cm) ([9]; 26 days): 45 cm
effect on the shoot biomass, leaf area or plant height [10]: clear positive effect
Biomass [11, 13]: 29 g
Plants with developed ears (%) [11, 13]: 54%
Sum of leaf length (cm) [11, 13]: 5473 cm
ear formation ([11]; result in words, maize): stimulated
GUS (SPX1) stained area normalized to the number of seeds (pixels) ([1]; Table 2): 9 pixels
suppression of the SPX1 biomarker (blue GUS staining) ([1]; result in words, 7 days of growth in low phosphate conditions): practically completely suppressed
